Measurements: patent US8859545B2, “Tetrahydronaphthyridine and tetrahydropyrido[4,3-D]pyrimidine compounds and compositions thereof useful for the treatment of inflammatory and respiratory diseases” (Evotec AG, priority 2005, dated 2014)
Counter-ions that a name gives are not always drawn.

Test system: P2X2/3 chimera (P2X2/3C)
Assay: Calcium uptake assay (P2X antagonist assay, agonist-induced calcium influx)
Type: cell-based
Source text: Human P2X3 (Accession no. NM_002559), P2X2 (Accession no. NM_170682) and Rat P2X3 (Accession no. NM_031075) and P2X2 (Accession no. NM_053656) are cloned into a mammalian expression vector (e.g., pcDNA5/TO or pcDNA3 Invitrogen). For coexpression of P2X2 and P2X3, the coding regions of both receptors were cloned into a bicistronic vector using methods similar to those described by Kawashima et al., Receptors Channels 5:53-60, 1998. The P2X2/3 chimera clone was created as described by Neelands et al, and then cloned into an expression vector as above. Receptors are expressed in cells (e.g., HEK293 or 1321N1) via transient transfection using standard lipid mediated transfection, or by creation of stable transfectants for each receptor. Cell lines are maintained in DMEM+5% Glutamax, the appropriate level of selective antibiotic, and 10% heat inactivated FBS.
The agonist EC50 is determined at the start of the assay and compound IC50 experiments are run using a set agonist concentration (EC50-90 depending on cell line) as stimulus. The agonists used are αβMeATP, ATP, or other ATP analogs. Compounds may be tested at concentrations ranging from 1 μM to 10 μM. Functional activity of compounds at the P2X receptor is determined by measuring their ability to inhibit agonist-induced calcium influx. Compounds may be tested for antagonist activity against the P2X2/3 chimera, the P2X3 homomer, or the P2X2/3 heteromer. To test for antagonist activity, cells expressing the appropriate receptor are seeded onto 96 or 384 well plates 18-24 hours prior to assay. On the day of the assay, cells are loaded with calcium-sensitive fluorescent dye (e.g., Fluo-4 no wash reagent-Invitrogen cat# F36206, or the BD™ PBX Calcium Assay Kit-BD cat#640175) in Hank's Buffered Salt Solution (HBSS) with up to 10 mM supplemental CaCl2. Plates are incubated at 37° C. and then equilibrated at room temperature. Antagonism of agonist-induced calcium influx is measured using a fluorescent imaging plate reader. The assay comprises two stages: a pre-treatment phase followed by a treatment phase. Compounds may be tested as follows: For the pre-treatment phase, 50 μL of 3× concentration of test compound in HBSS is added to cells containing 100 μL of dye loading media to achieve a final concentration of 1×. For the treatment phase, at a set interval after pre-treatment, 50 μL of 1× test compound plus 4× agonist solution is added to cells. Fluorescence is measured at 0.1-3 second intervals with an excitation wavelength of 494 nm and an emission wavelength of 515 nm. Responses are measured as peak fluorescence after compound-agonist addition minus baseline fluorescence prior to treatment. Percent inhibition is calculated as follows: […]
A calcium uptake assay was performed as described in paragraphs […] above.

[1] = at 3 μM (symbol before the slash)
[2] = at 10 μM (symbol after the slash)

| SMILES | Ca Influx P2X2/3C % Inhibition at 3 μM/10 μM [1] | Ca Influx P2X2/3C % Inhibition at 3 μM/10 μM [2] |
| --- | --- | --- |
| Clc1cccnc1N1CCc2ncnc(Nc3ccccc3)c2C1 [Compound 2, 6-(3-Chloropyridin-2-yl)-5,6,7,8-tetrahydro-N-phenylpyrido[4,3-d]pyrimidin-4-amine] | +/ (compound exhibited 0-25% inhibition at 3 μM) | – |
| FC(F)(F)c1ccc(Nc2ncnc3c2CN(c2ncccc2Cl)CC3)cn1 [Compound 4, 6-(3-Chloropyridin-2-yl)-N-(6-(trifluoromethyl)pyridin-3-yl)-5,6,7,8-tetrahydropyrido[4,3-d]pyrimidin-4-amine] | – | /* (compound exhibited 0-25% inhibition at 10 μM) |
| O=S(=O)(c1ccc(Nc2ncnc3c2CN(c2ncccc2Cl)CC3)cc1)C(F)(F)F [Compound 6, 6-(3-Chloropyridin-2-yl)-5,6,7,8-tetrahydro-N-(4-(trifluoromethylsulfonyl)phenyl)pyrido[4,3-d]pyrimidin-4-amine] | +/ (compound exhibited 0-25% inhibition at 3 μM) | – |
| Cc1ccccc1N1CCc2ncnc(Nc3ccc(C(F)(F)F)cc3)c2C1 [Compound 10, N-(4-(Trifluoromethyl)phenyl)-5,6,7,8-tetrahydro-6-o-tolylpyrido[4,3-d]pyrimidin-4-amine] | – | /* (compound exhibited 0-25% inhibition at 10 μM) |
| Cc1ccc(N2CCc3ncnc(Nc4ccc(C(F)(F)F)cc4)c3C2)cc1 [Compound 12, N-(4-(Trifluoromethyl)phenyl)-5,6,7,8-tetrahydro-6-p-tolylpyrido[4,3-d]pyrimidin-4-amine] | – | /* (compound exhibited 0-25% inhibition at 10 μM) |
| CC1(C)C(=O)Nc2cc(Nc3ncnc4c3CN(c3ncccc3Cl)CC4)ccc21 [Compound 13, 6-[6-(3-Chloro-pyridin-2-yl)-5,6,7,8-tetrahydro-pyrido[4,3-d]pyrimidin-4-ylamino]-3,3-dimethyl-1,3-dihydro-indol-2-one] | – | /* (compound exhibited 0-25% inhibition at 10 μM) |
| CC1(C)CNc2cc(Nc3ncnc4c3CN(c3ncccc3Cl)CC4)ccc21 [Compound 15, [6-(3-Chloro-pyridin-2-yl)-5,6,7,8-tetrahydro-pyrido[4,3-d]pyrimidin-4-yl]-(3,3-dimethyl-2,3-dihydro-1H-indol-6-yl)-amine HCl salt] | – | /* (compound exhibited 0-25% inhibition at 10 μM) |
| CN1CC(C)(C)c2ccc(Nc3ncnc4c3CN(c3ncccc3Cl)CC4)cc21 [Compound 16, [6-(3-Chloro-pyridin-2-yl)-5,6,7,8-tetrahydro-pyrido[4,3-d]pyrimidin-4-yl]-(3,3-dimethyl-2,3-dihydro-1-methyl-indol-6-yl)-amine] | +/ (compound exhibited 0-25% inhibition at 3 μM) | – |
| CC(C)(C)c1ccc(Nc2ncnc3c2CN(c2ncccc2Cl)CC3)cn1 [Compound 17, (6-tert-Butyl-pyridin-3-yl)-[6-(3-chloro-pyridin-2-yl)-5,6,7,8-tetrahydro-pyrido[4,3-d]pyrimidin-4-yl]-amine] | – | /* (compound exhibited 0-25% inhibition at 10 μM) |
| Cc1ccc(N2CCc3ncnc(NCC4(O)CCCC(C)(C)C4)c3C2)nc1 (stereo not drawn) [Compound 18, 3,3-Dimethyl-1-{[6-(5-methyl-pyridin-2-yl)-5,6,7,8-tetrahydro-pyrido[4,3-d]pyrimidin-4-ylamino]-methyl}-cyclohexanol] | – | /* (compound exhibited 0-25% inhibition at 10 μM) |
| Cc1ccc(N2CCc3ncnc(NCc4ccccc4C)c3C2)nc1 [Compound 24] | – | /**** (compound exhibited 25-50% inhibition at 10 μM) |
| Cc1ccc(N2CCc3ncnc(NCc4ccc(Cl)cc4)c3C2)nc1 [Compound 25] | ++++/ ^ (compound exhibited 75% or greater inhibition at 3 μM) | – |
| Cc1ccc(N2CCc3ncnc(NCC4CCCCC4)c3C2)nc1 [Compound 26] | – | /**** (compound exhibited 25-50% inhibition at 10 μM) |
| COc1ccccc1CNc1ncnc2c1CN(c1ccc(C)cn1)CC2 [Compound 27] | – | /**** (compound exhibited 25-50% inhibition at 10 μM) |
| COc1cccc(CNc2ncnc3c2CN(c2ccc(C)cn2)CC3)c1 [Compound 28] | ++++ (compound exhibited 75% or greater inhibition at 3 μM) | **** (compound exhibited 25-50% inhibition at 10 μM) |
| Cc1ccc(N2CCc3ncnc(NCc4ccccc4Cl)c3C2)nc1 [Compound 30] | ++++/ ^ (compound exhibited 75% or greater inhibition at 3 μM) | – |
| Cc1ccc(N2CCc3ncnc(NCCc4ccccc4Cl)c3C2)nc1 [Compound 32] | ++++ (compound exhibited 75% or greater inhibition at 3 μM) | **** (compound exhibited 25-50% inhibition at 10 μM) |

| SMILES | Ca Influx P2X2/3C % Inhibition at 3 μM/10 μM [1] | Ca Influx P2X2/3C % Inhibition at 3 μM/10 μM [2] |
| --- | --- | --- |
| COc1ccc(CCNc2ncnc3c2CN(c2ccc(C)cn2)CC3)cc1 [Compound 35] | ++++/ ^ (compound exhibited 75% or greater inhibition at 3 μM) | – |
| Cc1ccc(N2CCc3ncnc(N(C)Cc4ccccc4)c3C2)nc1 [Compound 36] | +/ (compound exhibited 0-25% inhibition at 3 μM) | – |
| Cc1ccc(N2CCc3ncnc(NCc4ccc5c(c4)OCO5)c3C2)nc1 [Compound 37] | ++++/ ^ (compound exhibited 75% or greater inhibition at 3 μM) | – |
| Cc1ccc(N2CCc3ncnc(NCc4cccc(C(F)(F)F)c4)c3C2)nc1 [Compound 38] | +++/ ^ (compound exhibited 50-75% inhibition at 3 μM) | – |
| Cc1ccc(N2CCc3ncnc(NCc4ccccc4C(F)(F)F)c3C2)nc1 [Compound 39] | +++/ ^ (compound exhibited 50-75% inhibition at 3 μM) | – |
| Cc1ccc(N2CCc3ncnc(NCc4ccc(OC(F)(F)F)cc4)c3C2)nc1 [Compound 40] | +++/ ^ (compound exhibited 50-75% inhibition at 3 μM) | – |
| Cc1ccc(N2CCc3ncnc(NCc4ccccc4OC(F)(F)F)c3C2)nc1 [Compound 42] | ++++/ ^ (compound exhibited 75% or greater inhibition at 3 μM) | – |
| Cc1ccc(N2CCc3ncnc(NCc4ccc(C(C)(C)C)cc4)c3C2)nc1 [Compound 44] | +/ (compound exhibited 0-25% inhibition at 3 μM) | – |
| Cc1ccc(N2CCc3ncnc(NCCc4ccccc4)c3C2)nc1 [Compound 45] | ++++/ ^ (compound exhibited 75% or greater inhibition at 3 μM) | – |
| COc1cccc(CCNc2ncnc3c2CN(c2ccc(C)cn2)CC3)c1 [Compound 46] | ++++/ ^ (compound exhibited 75% or greater inhibition at 3 μM) | – |
| COc1ccc(CCNc2ncnc3c2CN(c2ccc(C)cn2)CC3)cc1OC [Compound 47] | +++/ ^ (compound exhibited 50-75% inhibition at 3 μM) | – |
| Cc1ccc(N2CCc3ncnc(NCCc4ccc(Cl)cc4)c3C2)nc1 [Compound 48] | ++++/ ^ (compound exhibited 75% or greater inhibition at 3 μM) | – |
| Cc1ccc(CCNc2ncnc3c2CN(c2ccc(C)cn2)CC3)cc1 [Compound 49] | ++++/ ^ (compound exhibited 75% or greater inhibition at 3 μM) | – |
| Cc1ccc(N2CCc3ncnc(NCc4ccc(C(F)(F)F)cc4)c3C2)nc1 [Compound 50] | ++++/ ^ (compound exhibited 75% or greater inhibition at 3 μM) | – |
| COc1cc(CCNc2ncnc3c2CN(c2ccc(C)cn2)CC3)cc(OC)c1 [Compound 51] | +++/ ^ (compound exhibited 50-75% inhibition at 3 μM) | – |
| Cc1ccc(N2CCc3ncnc(NCc4ccccc4OC(F)F)c3C2)nc1 [Compound 52] | ++++/ ^ (compound exhibited 75% or greater inhibition at 3 μM) | – |
| COc1ccc(CNc2ncnc3c2CN(c2ccc(C)cn2)CC3)cc1 [Compound 53] | ++++/ ^ (compound exhibited 75% or greater inhibition at 3 μM) | – |
